Measurements reported in patent publication US8765773B2, “Substituted hydroxamic acids and uses thereof” (Millennium Pharmaceuticals, Inc., priority 2010, dated 2014).

Target: T1, purified human HDAC6 (Homo sapiens, UniProt Q9UBN7)
T1 construct: purchased BPS Bioscience 5006
T1 sequence (Q9UBN7 1-1215): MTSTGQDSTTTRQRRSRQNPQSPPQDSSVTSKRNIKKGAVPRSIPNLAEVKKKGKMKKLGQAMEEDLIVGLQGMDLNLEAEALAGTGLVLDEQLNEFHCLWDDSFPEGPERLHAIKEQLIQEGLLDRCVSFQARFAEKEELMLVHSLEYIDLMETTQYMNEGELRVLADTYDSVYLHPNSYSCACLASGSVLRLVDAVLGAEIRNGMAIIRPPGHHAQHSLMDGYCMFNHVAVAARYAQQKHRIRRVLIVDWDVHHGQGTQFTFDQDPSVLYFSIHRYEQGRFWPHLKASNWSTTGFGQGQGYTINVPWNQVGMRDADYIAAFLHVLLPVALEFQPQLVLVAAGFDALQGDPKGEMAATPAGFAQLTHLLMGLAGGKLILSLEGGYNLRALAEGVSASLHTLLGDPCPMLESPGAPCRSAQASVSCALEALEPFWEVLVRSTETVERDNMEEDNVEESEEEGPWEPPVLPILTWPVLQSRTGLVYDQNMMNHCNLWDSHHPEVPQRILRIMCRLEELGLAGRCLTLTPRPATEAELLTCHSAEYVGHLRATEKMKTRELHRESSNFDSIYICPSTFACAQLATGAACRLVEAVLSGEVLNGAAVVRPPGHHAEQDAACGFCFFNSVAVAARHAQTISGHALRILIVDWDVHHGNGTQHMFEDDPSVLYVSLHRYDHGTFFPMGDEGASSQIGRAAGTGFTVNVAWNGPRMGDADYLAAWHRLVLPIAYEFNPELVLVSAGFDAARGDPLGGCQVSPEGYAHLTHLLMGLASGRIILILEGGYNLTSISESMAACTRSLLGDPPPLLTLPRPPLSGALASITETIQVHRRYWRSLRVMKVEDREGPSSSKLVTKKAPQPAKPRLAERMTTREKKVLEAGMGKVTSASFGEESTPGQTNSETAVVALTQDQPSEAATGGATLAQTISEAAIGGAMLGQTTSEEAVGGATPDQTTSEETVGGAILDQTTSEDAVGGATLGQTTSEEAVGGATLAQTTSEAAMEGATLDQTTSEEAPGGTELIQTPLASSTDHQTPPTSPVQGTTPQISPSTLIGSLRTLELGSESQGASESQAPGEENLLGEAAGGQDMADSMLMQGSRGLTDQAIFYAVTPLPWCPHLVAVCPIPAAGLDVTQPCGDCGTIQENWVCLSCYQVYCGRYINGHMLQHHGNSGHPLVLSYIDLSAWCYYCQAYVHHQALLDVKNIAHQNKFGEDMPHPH
Test: HDAC6 Enzyme Assay
Assay type: biochemical
Conditions: compound concentration 0.37 μM, read-out: Percent Inhibition
How it was run: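 Readout is AMC fluorescence (Ex 340 nm, Em 460 nm) after trypsin cleavage of the deacetylated Ac-Arg-Gly-Lys(Ac)-AMC product. Reaction: purified human HDAC6, compound or vehicle, 1 hour, 30° C, quenched by trichostatin A. Single-concentration percent inhibition or IC50 calculated versus DMSO-treated samples.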

| inhibition at 0.37 µM [%] | Compound |
| --- | --- |
| 93.1 | O=C(NO)c1ccc2ccn(CCc3ccccn3)c(=O)c2c1 [Compound I-344, N-hydroxy-1-oxo-2-(2-pyridin-2-ylethyl)-1,2-dihydroisoquinoline-7-carboxamide] |
| 81.9 | O=C(NO)c1ccc2ncn(CCc3cccc(-c4cc(Cl)cc(Cl)c4)c3)c(=O)c2c1 [Compound I-345, 3-[2-(3′,5′-dichlorobiphenyl-3-yl)ethyl]-N-hydroxy-4-oxo-3,4-dihydroquinazoline-6-carboxamide] |
| 87 | O=C(NO)c1ccc2ccn(-c3ccccc3F)c(=O)c2c1 [Compound I-346, 2-(2-fluorophenyl)-N-hydroxy-1-oxo-1,2-dihydroisoquinoline-7-carboxamide] |
| 63.7 | O=C(NO)c1ccc2ncn(CCc3cccc(-c4c(F)cccc4F)c3)c(=O)c2c1 [Compound I-347, 3-[2-(2′,6′-difluorobiphenyl-3-yl)ethyl]-N-hydroxy-4-oxo-3,4-dihydroquinazoline-6-carboxamide] |
| 49.2 | COCc1cn(Cc2ccccc2)c(=O)c2cc(C(=O)NO)ccc12 [Compound I-394, 2-benzyl-N-hydroxy-4-(methoxymethyl)-1-oxo-1,2-dihydroisoquinoline-7-carboxamide] |
| 80.8 | COc1ccc(-c2nc3cc(C(=O)NO)ccc3c(=O)[nH]2)cc1 [Compound I-395, N-hydroxy-2-(4-methoxyphenyl)-4-oxo-3,4-dihydroquinazoline-7-carboxamide] |
| 62.3 | O=C(NO)c1ccc2c(=O)[nH]c(-c3cccc(-c4ccncc4)c3)nc2c1 [Compound I-396, N-hydroxy-4-oxo-2-(3-pyridin-4-ylphenyl)-3,4-dihydroquinazoline-7-carboxamide] |
| 96.3 | O=C(NO)c1ccc2ccn(-c3ccnc(NC(=O)C4CC4)c3)c(=O)c2c1 [Compound I-397, 2-{2-[(cyclopropylcarbonyl)amino]pyridin-4-yl}-N-hydroxy-1-oxo-1,2-dihydroisoquinoline-7-carboxamide] |
| 79 | O=C(NO)c1ccc2c(=O)[nH]c(-c3cccnc3)nc2c1 [Compound I-398, N-hydroxy-4-oxo-2-pyridin-3-yl-3,4-dihydroquinazoline-7-carboxamide] |
| 61.8 | CCn1nccc1-c1nc2cc(C(=O)NO)ccc2c(=O)[nH]1 [Compound I-399, 2-(1-ethyl-1H-pyrazol-5-yl)-N-hydroxy-4-oxo-3,4-dihydroquinazoline-7-carboxamide] |
| 73.9 | Cc1cn(Cc2ccccc2)c(=O)c2cc(C(=O)NO)ccc12 [Compound I-400, 2-benzyl-N-hydroxy-4-methyl-1-oxo-1,2-dihydroisoquinoline-7-carboxamide] |
| 88.2 | O=C(NO)c1ccc2c(=O)[nH]c(-c3ccccc3)nc2c1 [Compound I-401, N-hydroxy-4-oxo-2-phenyl-3,4-dihydroquinazoline-7-carboxamide] |
| 91.7 | CC(C)Cc1nc2cc(C(=O)NO)ccc2c(=O)[nH]1 [Compound I-402, N-hydroxy-2-isobutyl-4-oxo-3,4-dihydroquinazoline-7-carboxamide] |
| -4.61 | Cc1ncc(-c2nc3cc(C(=O)NO)ccc3c(=O)[nH]2)n1C [Compound I-403, 2-(1,2-dimethyl-1H-imidazol-5-yl)-N-hydroxy-4-oxo-3,4-dihydroquinazoline-7-carboxamide] |
| 5.79 | O=C(NO)c1ccc2c(=O)[nH]c(-c3nc4ccccc4o3)nc2c1 [Compound I-404, 2-(1,3-benzoxazol-2-yl)-N-hydroxy-4-oxo-3,4-dihydroquinazoline-7-carboxamide] |
| 92 | O=C(NO)c1ccc2c(=O)[nH]c(-c3ccc4ccccc4c3)nc2c1 [Compound I-405, N-hydroxy-2-(2-naphthyl)-4-oxo-3,4-dihydroquinazoline-7-carboxamide] |

| inhibition at 0.37 µM [%] | Compound |
| --- | --- |
| 86.6 | Cc1ccccc1Cc1nc2cc(C(=O)NO)ccc2c(=O)[nH]1 [Compound I-406, N-hydroxy-2-(2-methylbenzyl)-4-oxo-3,4-dihydroquinazoline-7-carboxamide] |
| 51.1 | NCc1cn(Cc2ccccc2)c(=O)c2cc(C(=O)NO)ccc12 [Compound I-407, 4-(aminomethyl)-2-benzyl-N-hydroxy-1-oxo-1,2-dihydroisoquinoline-7-carboxamide] |
| 94.9 | O=C(NO)c1ccc2c(=O)[nH]c(CCc3ccccc3)nc2c1 [Compound I-408, N-hydroxy-4-oxo-2-(2-phenylethyl)-3,4-dihydroquinazoline-7-carboxamide] |
| 92.5 | O=C(NO)c1ccc2c(=O)[nH]c(CC3CCCCC3)nc2c1 [Compound I-409, 2-(cyclohexylmethyl)-N-hydroxy-4-oxo-3,4-dihydroquinazoline-7-carboxamide] |
| 68.1 | COc1ccncc1-c1nc2cc(C(=O)NO)ccc2c(=O)[nH]1 [Compound I-410, N-hydroxy-2-(4-methoxypyridin-3-yl)-4-oxo-3,4-dihydroquinazoline-7-carboxamide] |
| 85.1 | O=C(NO)c1ccc2c(=O)[nH]c(Cc3ccccc3F)nc2c1 [Compound I-411, 2-(2-fluorobenzyl)-N-hydroxy-4-oxo-3,4-dihydroquinazoline-7-carboxamide] |
| 93 | Cc1ccc(CCc2nc3cc(C(=O)NO)ccc3c(=O)[nH]2)o1 [Compound I-412, N-hydroxy-2-[2-(5-methyl-2-furyl)ethyl]-4-oxo-3,4-dihydroquinazoline-7-carboxamide] |
| 94.1 | CC(C)(c1ccccc1)n1cnc2ccc(C(=O)NO)cc2c1=O [Compound I-413, N-hydroxy-3-(1-methyl-1-phenylethyl)-4-oxo-3,4-dihydroquinazoline-6-carboxamide] |
| 95.4 | O=C(NO)c1ccc2c(=O)[nH]c(-c3ccccc3Cl)nc2c1 [Compound I-414, 2-(2-chlorophenyl)-N-hydroxy-4-oxo-3,4-dihydroquinazoline-7-carboxamide] |
| 79.9 | Cn1c(-c2nc3cc(C(=O)NO)ccc3c(=O)[nH]2)cc2ccccc21 [Compound I-415, N-hydroxy-2-(1-methyl-1H-indol-2-yl)-4-oxo-3,4-dihydroquinazoline-7-carboxamide] |
| 90 | O=C(NO)c1ccc2c(=O)[nH]c(C3CCCCC3)nc2c1 [Compound I-416, 2-cyclohexyl-N-hydroxy-4-oxo-3,4-dihydroquinazoline-7-carboxamide] |
| 56.7 | Cc1ccc(Cc2nc3cc(C(=O)NO)ccc3c(=O)[nH]2)c(C)c1 [Compound I-417, 2-(2,4-dimethylbenzyl)-N-hydroxy-4-oxo-3,4-dihydroquinazoline-7-carboxamide] |
| 29.5 | CNCc1cn(Cc2ccccc2)c(=O)c2cc(C(=O)NO)ccc12 [Compound I-418, 2-benzyl-N-hydroxy-4-[(methylamino)methyl]-1-oxo-1,2-dihydroisoquinoline-7-carboxamide] |
| 23.2 | CN(C)Cc1cn(Cc2ccccc2)c(=O)c2cc(C(=O)NO)ccc12 [Compound I-419, 2-benzyl-4-[(dimethylamino)methyl]-N-hydroxy-1-oxo-1,2-dihydroisoquinoline-7-carboxamide] |
| 85.3 | O=C(NO)c1ccc2c(=O)[nH]c(C3CCCC3)nc2c1 [Compound I-420, 2-cyclopentyl-N-hydroxy-4-oxo-3,4-dihydroquinazoline-7-carboxamide] |
